One assay has as its system Staphylococcus aureus12. The assay can be described thus: In vivo pharmacodynamic: mice abdominal cavity infected, half protective dose. The settings on record: 168 h; mice infected with Staphylococcus aureus12, challenging dose 4.8 × 10^4 CFU/0.5 ml/mouse, intragastric administration, fatality within seven days. As for the experimental part: (§1) Test method: infectious bacteria liquid preparation: put the bacteria liquid stored in the −80° C. refrigerator into the room for about 1 h at room temperature, and respectively draw 0.1 ml bacteria liquid of streptococcus pneumonia, streptococcus pyogenes and enterococcus into 2 ml MH soup (add 10% inactivated horse serum); inoculate the 2 ml MH soup with 0.1 ml bacteria liquid of staphylococcus aureus according to the above method, place the liquid into 37° C. incubator for 18 h to get the original bacteria liquid, dilute the original bacteria liquid with 5% gastric mucin, take 100% lethal bacteria amount if animal gets infected as infectious bacteria liquid.
(§2) Oral administration is planned for clinical medication of levocarrimycin, thus intragastric administration is selected for levocarrimycin test. After intraperitoneal injection of 0.5 ml lethal bacterial amount to the mice' abdominal cavity, the mice appear following symptom, such as reduced activity, repose, hair became loose, and so on. Clyster with 0.2 ml for every mouse after infection 0.5-6 h, there is no adverse reaction. Observe animal fatality within seven days and calculate the half protective dose (EDO of drugs for infected mice and compare the protective effect of drugs througe Bliss order.

Assay [1] concerns Staphylococcus aureus16. The description is as above. The settings on record: 168 h; mice infected with Staphylococcus aureus16, challenging dose 5.2 × 10^3 CFU/0.5 ml/mouse, intragastric administration, fatality within seven days. As for the experimental part: as §1, §2
The test system of assay [2] is Streptococcus pneumonia57. Described as above. The settings on record: 168 h; mice infected with Streptococcus pneumonia57, challenging dose 8.8 × 10^4 CFU/0.5 ml/mouse, intragastric administration, fatality within seven days. As for the experimental part:
as §1, §2

The subject of assay [3] is Streptococcus pyogenes119. The assay is described as above. The settings on record: 168 h; mice infected with Streptococcus pyogenes119, challenging dose 4.9 × 10^4 CFU/0.5 ml/mouse, intragastric administration, fatality within seven days. The protocol: as §1, §2
The test system of a further assay is Gonococcus (10). The experiment in a line: In vitro pharmacodynamics, clinical isolates, two-fold plate dilution. The format is cell-based. Particulars: 10 clinical isolates of Gonococcus.
The subject of assay [4] is urea plasma urealyticum (Uu). The experiment in a line: In vitro anti-urea plasma urealyticum MIC in U-PPLO. The format is cell-based. As for the experimental part:
1. Test method: add U-PPLO 0.8 ml in sterile 12-pore cell culture plate (add 0.9 ml in bacteria liquid control pore and 1.0 ml in culture medium control pores).
3. Divide into 3 groups (100 μg/ml, 10 μg/ml and 1 μg/ml antibiotic stocksolution), Add experimental antibiotics (levocarrimycin in example 6 of the present invention, acetyl spiramycin, erythrocin and azithromycin) in each experimental pores with sterile Tip according to double degradation concentration gradient: 100 μl, 50 μl, 25 μl and 12.5 μl.
4. Blend the above pores evenly, seal the culture plate with an adhesive tape and then culture in 37° C. incubator.
5. Abserve and record the growth of Uu on 17-24 h after the test.

A further assay deals with Streptococcus pneumonia3. The assay can be described thus: MIC against the infecting test organism (Table 3). Type of assay: cell-based, Streptococcus pneumonia.
Assay [5] has as its system Streptococcus pneumonia57. The experiment in a line: MIC against the infecting test organism (Table 3). The format is cell-based, Streptococcus pneumonia.
Assay [6] has as its system Streptococcus pyogenes772. The experiment in a line: MIC against the infecting test organism (Table 3). Type of assay: cell-based, Streptococcus pyogenes.
Assay [7] deals with Streptococcus pyogenes102. The experiment in a line: MIC against the infecting test organism (Table 3). Type of assay: cell-based, Streptococcus pyogenes.
The test system of assay [8] is Streptococcus pyogenes119. The experiment in a line: MIC against the infecting test organism (Table 3). The format is cell-based, Streptococcus pyogenes.
Another assay concerns Enterococcus32. The assay can be described thus: MIC against the infecting test organism (Table 4). Type of assay: cell-based, Enterococcus.
For assay [9], the system named is Staphylococcus aureus16. The experiment in a line: MIC against the infecting test organism (Table 4). Type of assay: cell-based, Staphylococcus aureus.
The subject of the next assay is Staphylococcus aureus76. The experiment in a line: MIC against the infecting test organism (Table 4). Type of assay: cell-based, Staphylococcus aureus.
In assay [10] the test system is chlamydia trachomatis serotype B/TW-5/OT. The assay can be described thus: In vitro anti-chlamydia MIC, McCoy cells, immunofluorescent staining of inclusions. The format is cell-based. Particulars: Chlamydia trachomatis B/TW-5/OT in McCoy cells, 48 h.
Assay [11] deals with chlamydia trachomatis serotype D/UW-3/Cx. Described as above. The format is cell-based. Particulars: Chlamydia trachomatis D/UW-3/Cx in McCoy cells, 48 h.
For assay [12], the system named is chlamydia pneumoniae CWL-029. The experiment in a line: In vitro anti-chlamydia MIC, HEp-2 cells, immunofluorescent staining of inclusions. The format is cell-based. The settings on record: Chlamydia pneumoniae CWL-029 in HEp-2 cells, 72 h.

≈ marks a conversion by molar mass, not a printed value.

The values below come from patent US9089586B2, “Levocarrimycin, pharmaceutical compositions, preparation methods and uses thereof” (SHENYANG TONGLIAN GROUP CO., LTD., priority 2010, dated 2015).

On to `CC[C@H]1OC(=O)[C@H](C)[C@@H](O[C@H]2C[C@@](C)(OC)[C@@H](O)[C@H](C)O2)[C@H](C)[C@@H](O[C@@H]2O[C@H](C)C[C@H](N(C)C)[C@H]2O)[C@](C)(O)C[C@@H](C)CN(C)[C@H](C)[C@@H](O)[C@]1(C)O` [Azithromycin], for which the ED50 in the assay on Staphylococcus aureus12 turned out to be 217 mg/kg; in the assay on Staphylococcus aureus16 [1] it was 75.8 mg/kg; in assay [2] it was 19.7 mg/kg; in [3], 99 mg/kg. Also, the MIC with Gonococcus (10) was in the range of 0.12 to 64 µg/mL (≈ 0.16 to 85.4 µM); in assay [4] (final MIC (24 h), determined 4 times, 10^3 CCU/ml, read-out: MIC of anti-urea plasma urealyticum strains) it was 0.025 to 0.125 µg/mL.

In the assay on Gonococcus (10), `CC[C@H]1OC(=O)[C@H](C)[C@@H](O[C@H]2C[C@@](C)(OC)[C@@H](O)[C@H](C)O2)[C@H](C)[C@@H](O[C@@H]2O[C@H](C)C[C@H](N(C)C)[C@H]2O)[C@](C)(O)C[C@@H](C)C(=O)[C@H](C)[C@@H](O)[C@]1(C)O` [Erythrocin] yielded a minimum inhibitory concentration (MIC) of 0.12 to 64 µg/mL (≈ 0.164 to 87.2 µM). In assay [4] (verbal comparison of the four antibiotics), the anti-Uu function result is recorded as “the worst”.

For Acetyl spiramycin, the MIC worked out at 0.5 µg/mL in the assay with Streptococcus pneumonia3; 1 µg/mL in assay [5]; 0.25 µg/mL in assay [6]; 0.5 µg/mL in assay [7]; 0.5 µg/mL in assay [8]; 1 µg/mL against Enterococcus32. For the same compound, the MIC against Staphylococcus aureus16 [9] and against Staphylococcus aureus76 was 1 µg/mL throughout. The same compound gave an MIC scope in the assay with Gonococcus (10) of 0.12 to 64 µg/mL. Also, the figures for the “Minimal inhibitory concentration (MIC)” value in assay [10], in [11] and in assay [12] were 4 µg/mL, 2 µg/mL and 0.5 µg/mL, respectively. For the same compound, in assay [4] (final MIC (24 h), determined 4 times, 10^3 CCU/ml), the “MIC of anti-urea plasma urealyticum strains” value amounted to 0.5 µg/mL.

What is called ED50 is the dose that gives a 50% effect, or the effect in half of the subjects. Lower therefore signals an effect at a small dose. As usually defined, the MIC is the lowest concentration found to suppress growth.
